Converted amounts (≈) assume the structure as drawn. Starred links: 1 amine or outer side, 2 acyl side, 3 side chain; linkers in the order of their positions; H or OH if unused. Non-standard residues stand in square brackets, D forms with d. Residues, ends and D or L forms follow the SMILES beside them. *: point of attachment. 4Pal = N[C@@H](Cc1ccncc1)C(=O)O; NH(4-F-phenyl) = Fc1ccc(N*)cc1; αMeL = CC(C)C[C@](C)(N)C(=O)O; hLeu = CC(C)CC[C@H](N)C(=O)O; NBuGly = CCCCNCC(=O)O; CO = O=C([*:1])[*:2]; Ava = NCCCCC(=O)O; Ms = CS(=O)(=O)*
Tests used:
Settings in all cases: 24 h
C. krusei = tested on: C. krusei
C. albicans = tested on: C. albicans
C. tropicalis = tested on: C. tropicalis
C. dubliniensis = tested on: C. dubliniensis
C. parapsilosis = tested on: C. parapsilosis
C. glabrata = tested on: C. glabrata
C. auris = tested on: C. auris

MIC C. krusei (C. krusei) | MIC C. albicans (C. albicans) | MIC C. tropicalis (C. tropicalis) | MIC C. dubliniensis (C. dubliniensis) | MIC C. parapsilosis (C. parapsilosis) | MIC C. glabrata (C. glabrata) | MIC C. auris (C. auris) | Structure (SMILES)
1 µg/mL (≈ 0.387 µM) | 0.5 µg/mL (≈ 0.193 µM) | 0.5 µg/mL (≈ 0.193 µM) | 0.5 µg/mL (≈ 0.193 µM) | 0.5 µg/mL (≈ 0.193 µM) | 0.5 µg/mL (≈ 0.193 µM) | 1 µg/mL (≈ 0.387 µM) | CC(C)C[C@](C)(NC(=O)[C@H](CCCNC(=N)N)NC(=O)[C@@H](CCCNC(=N)N)NC(=O)[C@H](CCCNC(=N)N)NC(=O)[C@@H](CCCNC(=N)N)NC(=O)[C@](C)(CC(C)C)NC(=O)[C@@H](CCCNC(=N)N)NC(=O)[C@H](CCCNC(=N)N)NC(=O)[C@@H](CCCNC(=N)N)NC(=O)[C@](C)(CC(C)C)NC(=O)[C@@H](CCCNC(=N)N)NC(=O)[C@H](CCCNC(=N)N)NC(=O)[C@H](N)CCCNC(=N)N)C(=O)N[C@H](CCCNC(=N)N)C(=O)N[C@@H](CCCNC(=N)N)C(=O)N[C@H](CCCNC(=N)N)C(=O)N[C@@H](CCCNC(=N)N)C(N)=O [SEQ ID NO: 37, rRr-Leu(Me)-rRr-Leu(Me)-rRrR-Leu(Me)-rRrR-NH2] (H-[dR]R[dR][αMeL][dR]R[dR][αMeL][dR]R[dR]R[αMeL][dR]R[dR]R-NH2)
0.5 µg/mL (≈ 0.189 µM) | 0.5 µg/mL (≈ 0.189 µM) | 0.5 µg/mL (≈ 0.189 µM) | 0.5 µg/mL (≈ 0.189 µM) | 0.25 µg/mL (≈ 0.0944 µM) | 0.5 µg/mL (≈ 0.189 µM) | 0.5 µg/mL (≈ 0.189 µM) | N=C(N)NCCC[C@@H](N)C(=O)N[C@@H](CCCNC(=N)N)C(=O)N[C@H](CCCNC(=N)N)C(=O)N[C@@H](Cc1ccncc1)C(=O)N[C@H](CCCNC(=N)N)C(=O)N[C@@H](CCCNC(=N)N)C(=O)N[C@H](CCCNC(=N)N)C(=O)N[C@@H](Cc1ccncc1)C(=O)N[C@H](CCCNC(=N)N)C(=O)N[C@@H](CCCNC(=N)N)C(=O)N[C@H](CCCNC(=N)N)C(=O)N[C@@H](CCCNC(=N)N)C(=O)N[C@@H](Cc1ccncc1)C(=O)N[C@H](CCCNC(=N)N)C(=O)N[C@@H](CCCNC(=N)N)C(=O)N[C@H](CCCNC(=N)N)C(=O)N[C@@H](CCCNC(=N)N)C(N)=O [SEQ ID NO: 77, rRr-(4-PyrAla)-rRr-(4-PyrAla)-rRrR-(4-PyrAla)-rRrR-NH2] (H-[dR]R[dR][4Pal][dR]R[dR][4Pal][dR]R[dR]R[4Pal][dR]R[dR]R-NH2)
1 µg/mL (≈ 0.406 µM) | 0.5 µg/mL (≈ 0.203 µM) | 0.5 µg/mL (≈ 0.203 µM) | 0.5 µg/mL (≈ 0.203 µM) | 0.25 µg/mL (≈ 0.101 µM) | 0.5 µg/mL (≈ 0.203 µM) | 1 µg/mL (≈ 0.406 µM) | CC(C)CC[C@H](N)C(=O)N[C@@H](CCCNC(=N)N)C(=O)N[C@H](CCCNC(=N)N)C(=O)N1CCC[C@H]1C(=O)N[C@H](CCCNC(=N)N)C(=O)N[C@@H](CCCNC(=N)N)C(=O)N[C@H](CCCNC(=N)N)C(=O)N1CCC[C@H]1C(=O)N[C@H](CCCNC(=N)N)C(=O)N[C@@H](CCCNC(=N)N)C(=O)N[C@H](CCCNC(=N)N)C(=O)N[C@@H](CCCNC(=N)N)C(=O)N1CCC[C@H]1C(=O)N[C@H](CCCNC(=N)N)C(=O)N[C@@H](CCCNC(=N)N)C(=O)N[C@H](CCCNC(=N)N)C(=O)N[C@@H](CCCNC(=N)N)C(N)=O [SEQ ID NO: 94, (hLeu)Rr-P-rRr-P-rRrR-P-rRrR-NH2] (H-[hLeu]R[dR]P[dR]R[dR]P[dR]R[dR]RP[dR]R[dR]R-NH2)
1 µg/mL (≈ 0.38 µM) | 0.5 µg/mL (≈ 0.19 µM) | 0.5 µg/mL (≈ 0.19 µM) | 0.5 µg/mL (≈ 0.19 µM) | 0.5 µg/mL (≈ 0.19 µM) | 0.5 µg/mL (≈ 0.19 µM) | 0.5 µg/mL (≈ 0.19 µM) | N=C(N)NCCC[C@H](NC(=O)[C@@H](CCCNC(=N)N)NC(=O)[C@H](CCCNC(=N)N)NC(=O)[C@@H](CCCNC(=N)N)NC(=O)[C@@H]1CCCN1C(=O)[C@H](CCCNC(=N)N)NC(=O)[C@@H](CCCNC(=N)N)NC(=O)[C@H](CCCNC(=N)N)NC(=O)[C@@H](CCCNC(=N)N)NC(=O)[C@@H]1CCCN1C(=O)[C@@H](CCCNC(=N)N)NC(=O)[C@H](CCCNC(=N)N)NC(=O)[C@@H](CCCNC(=N)N)NC(=O)[C@@H]1CCCN1C(=O)[C@@H](CCCNC(=N)N)NC(=O)[C@H](CCCNC(=N)N)NC(=O)[C@@H](CCCNC(=N)N)NC(=O)Nc1ccc(F)cc1)C(N)=O [SEQ ID NO: 57, 4-FPhNHC(O)NH-rRr-P-rRr-P-rRrR-P-rRrR-NH2] ({NH(4-F-phenyl)-CO}-[dR]R[dR]P[dR]R[dR]P[dR]R[dR]RP[dR]R[dR]R-NH2)
1 µg/mL (≈ 0.389 µM) | 0.5 µg/mL (≈ 0.194 µM) | 0.5 µg/mL (≈ 0.194 µM) | 0.5 µg/mL (≈ 0.194 µM) | 0.25 µg/mL (≈ 0.0972 µM) | 0.5 µg/mL (≈ 0.194 µM) | 0.5 µg/mL (≈ 0.194 µM) | CS(=O)(=O)N[C@H](CCCNC(=N)N)C(=O)N[C@@H](CCCNC(=N)N)C(=O)N[C@H](CCCNC(=N)N)C(=O)N1CCC[C@H]1C(=O)N[C@H](CCCNC(=N)N)C(=O)N[C@@H](CCCNC(=N)N)C(=O)N[C@H](CCCNC(=N)N)C(=O)N1CCC[C@H]1C(=O)N[C@H](CCCNC(=N)N)C(=O)N[C@@H](CCCNC(=N)N)C(=O)N[C@H](CCCNC(=N)N)C(=O)N[C@@H](CCCNC(=N)N)C(=O)N1CCC[C@H]1C(=O)N[C@H](CCCNC(=N)N)C(=O)N[C@@H](CCCNC(=N)N)C(=O)N[C@H](CCCNC(=N)N)C(=O)N[C@@H](CCCNC(=N)N)C(N)=O [SEQ ID NO: 56, CH3SO2NH-rRr-P-rRr-P-rRrR-P-rRrR-NH2] (Ms-[dR]R[dR]P[dR]R[dR]P[dR]R[dR]RP[dR]R[dR]R-NH2)
1 µg/mL (≈ 0.494 µM) | 0.5 µg/mL (≈ 0.247 µM) | 0.5 µg/mL (≈ 0.247 µM) | 0.25 µg/mL (≈ 0.124 µM) | 0.25 µg/mL (≈ 0.124 µM) | 0.5 µg/mL (≈ 0.247 µM) | 16 µg/mL (≈ 7.91 µM) | N=C(N)NCCC[C@@H](N)C(=O)N[C@@H](CCCNC(=N)N)C(=O)N[C@@H](Cc1ccncc1)C(=O)N[C@H](CCCNC(=N)N)C(=O)N[C@@H](CCCNC(=N)N)C(=O)N[C@@H](Cc1ccncc1)C(=O)N[C@H](CCCNC(=N)N)C(=O)N[C@@H](CCCNC(=N)N)C(=O)N[C@H](CCCNC(=N)N)C(=O)N[C@@H](Cc1ccncc1)C(=O)N[C@H](CCCNC(=N)N)C(=O)N[C@@H](CCCNC(=N)N)C(=O)N[C@H](CCCNC(=N)N)C(N)=O [SEQ ID NO: 78, rR-(4-PyrAla)-rR-(4-PyrAla)-rRr-(4-PyrAla)-rRr-NH2] (H-[dR]R[4Pal][dR]R[4Pal][dR]R[dR][4Pal][dR]R[dR]-NH2)
0.5 µg/mL (≈ 0.2 µM) | 0.5 µg/mL (≈ 0.2 µM) | 0.5 µg/mL (≈ 0.2 µM) | 0.5 µg/mL (≈ 0.2 µM) | 0.25 µg/mL (≈ 0.0998 µM) | 1 µg/mL (≈ 0.399 µM) | 8 µg/mL (≈ 3.19 µM) | N=C(N)NCCC[C@@H](N)C(=O)N[C@@H](CCCNC(=N)N)C(=O)N[C@H](CCCNC(=N)N)C(=O)NCCNCC(=O)N[C@H](CCCNC(=N)N)C(=O)N[C@@H](CCCNC(=N)N)C(=O)N[C@H](CCCNC(=N)N)C(=O)NCCNCC(=O)N[C@H](CCCNC(=N)N)C(=O)N[C@@H](CCCNC(=N)N)C(=O)N[C@H](CCCNC(=N)N)C(=O)N[C@@H](CCCNC(=N)N)C(=O)NCCNCC(=O)N[C@H](CCCNC(=N)N)C(=O)N[C@@H](CCCNC(=N)N)C(=O)N[C@H](CCCNC(=N)N)C(=O)N[C@@H](CCCNC(=N)N)C(N)=O [SEQ ID NO: 46, rRr-(Aeg)-rRr-(Aeg)-rRrR-(Aeg)-rRrR-NH2]
0.5 µg/mL (≈ 0.197 µM) | 0.5 µg/mL (≈ 0.197 µM) | 0.5 µg/mL (≈ 0.197 µM) | 0.5 µg/mL (≈ 0.197 µM) | 0.25 µg/mL (≈ 0.0983 µM) | 0.5 µg/mL (≈ 0.197 µM) | 0.5 µg/mL (≈ 0.197 µM) | CCCCN(CC(=O)N[C@H](CCCNC(=N)N)C(=O)N[C@@H](CCCNC(=N)N)C(=O)N[C@H](CCCNC(=N)N)C(=O)N[C@@H](CCCNC(=N)N)C(N)=O)C(=O)[C@H](CCCNC(=N)N)NC(=O)[C@@H](CCCNC(=N)N)NC(=O)[C@H](CCCNC(=N)N)NC(=O)[C@@H](CCCNC(=N)N)NC(=O)CN(CCCC)C(=O)[C@@H](CCCNC(=N)N)NC(=O)[C@H](CCCNC(=N)N)NC(=O)[C@@H](CCCNC(=N)N)NC(=O)CN(CCCC)C(=O)[C@@H](CCCNC(=N)N)NC(=O)[C@H](CCCNC(=N)N)NC(=O)[C@H](N)CCCNC(=N)N [SEQ ID NO: 35, rRr-(ButylGly)-rRr-(ButylGly)-rRrR-(ButylGly)-rRrR-NH2] (H-[dR]R[dR][NBuGly][dR]R[dR][NBuGly][dR]R[dR]R[NBuGly][dR]R[dR]R-NH2)
0.5 µg/mL (≈ 0.2 µM) | 0.5 µg/mL (≈ 0.2 µM) | 0.5 µg/mL (≈ 0.2 µM) | 0.5 µg/mL (≈ 0.2 µM) | 0.25 µg/mL (≈ 0.1 µM) | 0.5 µg/mL (≈ 0.2 µM) | 0.5 µg/mL (≈ 0.2 µM) | N=C(N)NCCC[C@@H](N)C(=O)N[C@@H](CCCNC(=N)N)C(=O)N[C@H](CCCNC(=N)N)C(=O)N[C@@H](CCCNC(=N)N)C(=O)NCCCCC(=O)N[C@H](CCCNC(=N)N)C(=O)N[C@@H](CCCNC(=N)N)C(=O)N[C@H](CCCNC(=N)N)C(=O)N[C@@H](CCCNC(=N)N)C(=O)NCCCCC(=O)N[C@H](CCCNC(=N)N)C(=O)N[C@@H](CCCNC(=N)N)C(=O)N[C@H](CCCNC(=N)N)C(=O)NCCCCC(=O)N[C@H](CCCNC(=N)N)C(=O)N[C@@H](CCCNC(=N)N)C(=O)N[C@H](CCCNC(=N)N)C(N)=O [SEQ ID NO: 21, rRrR-(Ava)-rRrR-(Ava)-rRr-(Ava)-rRr-NH2] (H-[dR]R[dR]R[Ava][dR]R[dR]R[Ava][dR]R[dR][Ava][dR]R[dR]-NH2)
0.5 µg/mL (≈ 0.2 µM) | 0.25 µg/mL (≈ 0.1 µM) | 0.25 µg/mL (≈ 0.1 µM) | 0.5 µg/mL (≈ 0.2 µM) | 0.25 µg/mL (≈ 0.1 µM) | 0.5 µg/mL (≈ 0.2 µM) | 2 µg/mL (≈ 0.801 µM) | N=C(N)NCCC[C@@H](N)C(=O)N[C@@H](CCCNC(=N)N)C(=O)N[C@H](CCCNC(=N)N)C(=O)N1CCC[C@H]1C(=O)N[C@H](CCCNC(=N)N)C(=O)N[C@@H](CCCNC(=N)N)C(=O)N[C@H](CCCNC(=N)N)C(=O)N1CCC[C@H]1C(=O)N[C@H](CCCNC(=N)N)C(=O)N[C@@H](CCCNC(=N)N)C(=O)N[C@H](CCCNC(=N)N)C(=O)N[C@@H](CCCNC(=N)N)C(=O)N1CCC[C@H]1C(=O)N[C@H](CCCNC(=N)N)C(=O)N[C@@H](CCCNC(=N)N)C(=O)N[C@H](CCCNC(=N)N)C(=O)N[C@@H](CCCNC(=N)N)C(=O)O [SEQ ID NO: 54, rRr-P-rRr-P-rRrR-P-rRrR] (H-[dR]R[dR]P[dR]R[dR]P[dR]R[dR]RP[dR]R[dR]R-OH)

From patent US20240360177A1, “PEPTIDES WITH ANTIMICROBIAL ACTIVITIES” (priority 2021, published 2024)
